Assay results published in ChEMBL document CHEMBL1201862, “PubChem BioAssay data set” (2004).
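Briefly, cells in 96-well plates were exposed to five compound concentrations for 48 h, and endpoints were estimated by linear interpolation. GI50 = concentration required for 50% inhibition of growth.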 Active and inactive are the calls of the source. Rule as the data show it: active = GI50 up to about 1.1 µM and inactive = higher.

Columns and labels:
Experiment in all cases: NCI anticancer screen, dose series, 48 h
SF-295 = system: SF-295
HT-29 = system: HT-29
MOLT-4 = system: MOLT-4
K562 = system: K562
OVCAR-8 = system: OVCAR-8
IGROV-1 = system: IGROV-1
UACC-257 = system: UACC-257
SK-MEL-28 = system: SK-MEL-28
KM12 = system: KM12
SN12C = system: SN12C
NCI-H23 = system: NCI-H23
OVCAR-4 = system: OVCAR-4
SW-620 = system: SW-620
SF-539 = system: SF-539
Malme-3M = system: Malme-3M
SR = system: SR
OVCAR-5 = system: OVCAR-5

Row | Structure (SMILES) | GI50 (SF-295) | GI50 (HT-29) | GI50 (MOLT-4) | GI50 (K562) | GI50 (OVCAR-8) | GI50 (IGROV-1) | GI50 (UACC-257) | GI50 (SK-MEL-28) | GI50 (KM12) | GI50 (SN12C) | GI50 (NCI-H23) | GI50 (OVCAR-4) | GI50 (SW-620) | GI50 (SF-539) | GI50 (Malme-3M) | GI50 (SR) | GI50 (OVCAR-5)
1 | O=S(=O)(c1ccccc1)N1CCC1c1ccccc1 (stereo unspecified) | > 100 µM (inactive) | > 100 µM (inactive) | 33.7 µM (inactive) | 54.3 µM (inactive) | > 100 µM (inactive) | > 100 µM (inactive) | 63.2 µM (inactive) | > 100 µM (inactive) | > 100 µM (inactive) | > 100 µM (inactive) | > 100 µM (inactive) | 89.5 µM (inactive) | > 100 µM (inactive) | > 100 µM (inactive) | > 100 µM (inactive) |  | 
2 | CCN1c2ccccc2-c2c3c1cc(C)cc3c1ccccc1[n+]2CC | 0.78 µM (active) | 1.41 µM (inactive) | 1.04 µM (active) | 0.323 µM (active) | 0.427 µM (active) | 1.66 µM (inactive) | 0.437 µM (active) | 1.19 µM (inactive) | 0.339 µM (active) | 0.659 µM (active) | 1.32 µM (inactive) | 1.57 µM (inactive) | 1.11 µM (active) | 1.19 µM (inactive) | 1.15 µM (inactive) | 1.55 µM (inactive) | 1.5 µM (inactive)
3 | C/C(=N\NC(N)=S)C(CN(CC(C)C)CC(C)C)C(=O)Nc1ccc(C)cc1C (stereo unspecified) | > 100 µM (inactive) | > 100 µM (inactive) | > 100 µM (inactive) | > 100 µM (inactive) | > 100 µM (inactive) | > 100 µM (inactive) | > 100 µM (inactive) | > 100 µM (inactive) | > 100 µM (inactive) | > 100 µM (inactive) | > 100 µM (inactive) | > 100 µM (inactive) | > 100 µM (inactive) | > 100 µM (inactive) | > 100 µM (inactive) | > 100 µM (inactive) | > 100 µM (inactive)
4 | COc1cccc2c1C(=O)c1c(O)c3c(c(O)c1C2=O)CC(O)(C(C)=O)CC3OC1CC([N+](C)(C)C)C(O)C(C)O1 (stereo unspecified) | > 100 µM (inactive) | 94.2 µM (inactive) | 12.4 µM (inactive) | 23.1 µM (inactive) | 54.3 µM (inactive) | 42.1 µM (inactive) | > 100 µM (inactive) | > 100 µM (inactive) | > 100 µM (inactive) | 50.7 µM (inactive) | 72.9 µM (inactive) | > 100 µM (inactive) | 56.1 µM (inactive) | 47.2 µM (inactive) | > 100 µM (inactive) | 5.24 µM (inactive) | > 100 µM (inactive)
5 | N#C[C-](C#N)[n+]1ccc(Cl)cc1 | 19 µM (inactive) | 18 µM (inactive) | 12.7 µM (inactive) | 3.03 µM (inactive) | 17.1 µM (inactive) | 19.1 µM (inactive) | 15.2 µM (inactive) |  | 23.3 µM (inactive) | 14.4 µM (inactive) | 16.2 µM (inactive) | 24.9 µM (inactive) | 10.9 µM (inactive) | 20.4 µM (inactive) | 15.8 µM (inactive) | 14.4 µM (inactive) | 18.7 µM (inactive)
6 | CCCCCCCC(=O)OCC1OC(n2cc(F)c(=O)[nH]c2=O)C(N)C(O)C1O (stereo unspecified) | > 100 µM (inactive) | > 100 µM (inactive) | > 100 µM (inactive) | > 100 µM (inactive) | > 100 µM (inactive) | > 100 µM (inactive) | > 100 µM (inactive) | > 100 µM (inactive) | > 100 µM (inactive) | > 100 µM (inactive) | > 100 µM (inactive) | > 100 µM (inactive) | > 100 µM (inactive) | > 100 µM (inactive) | > 100 µM (inactive) | > 100 µM (inactive) | > 100 µM (inactive)
7 | COc1cc(C(=C2SCCS2)c2nccc3cc(OC)c(OC)cc23)c([N+](=O)[O-])cc1OC | 56 µM (inactive) | 58.9 µM (inactive) | 21.6 µM (inactive) | 9.42 µM (inactive) | > 100 µM (inactive) | > 100 µM (inactive) | 34 µM (inactive) | > 100 µM (inactive) | 90.4 µM (inactive) | 48.9 µM (inactive) | 40.8 µM (inactive) |  | 62.1 µM (inactive) | > 100 µM (inactive) | 74.3 µM (inactive) | 21.7 µM (inactive) | > 100 µM (inactive)
8 | N#CC(C#N)=Cc1ccc(Oc2ccccc2)cc1 | 22.2 µM (inactive) | 22.4 µM (inactive) | 28.6 µM (inactive) | 26.7 µM (inactive) | 25.5 µM (inactive) | 29.9 µM (inactive) | 25.6 µM (inactive) | 15.8 µM (inactive) | 39.3 µM (inactive) | 14.1 µM (inactive) | 23.6 µM (inactive) |  | 32.4 µM (inactive) | 19.9 µM (inactive) | 21.7 µM (inactive) | 41.3 µM (inactive) | > 100 µM (inactive)
